Data: patent US9856252B2, “2-(hetero)aryl-benzimidazole and imidazopyridine derivatives as inhibitors of asparagime emethyl transferase” (Cancer Therapeutics CRC Pty Ltd, priority 2013, dated 2018)
Counter-ions that a name gives are not always drawn.

These molecules were tested against Full-length PRMT5 enzyme (NCBI Reference sequence NP_006100.2) co-expressed with His6-MEP50 (Homo sapiens (Human), UniProt O14744) (assay: PRMT5 Biochemical Assay). Details: histone H4 derived peptide substrate 200 nM, 1 μM S-Adenosyl methionine, 4 hours at 37° C., Transcreener EPIGEN fluorescence polarisation.
Sequence of Full-length PRMT5 enzyme (NCBI Reference sequence NP_006100.2) co-expressed with His6-MEP50 (O14744 whole entry): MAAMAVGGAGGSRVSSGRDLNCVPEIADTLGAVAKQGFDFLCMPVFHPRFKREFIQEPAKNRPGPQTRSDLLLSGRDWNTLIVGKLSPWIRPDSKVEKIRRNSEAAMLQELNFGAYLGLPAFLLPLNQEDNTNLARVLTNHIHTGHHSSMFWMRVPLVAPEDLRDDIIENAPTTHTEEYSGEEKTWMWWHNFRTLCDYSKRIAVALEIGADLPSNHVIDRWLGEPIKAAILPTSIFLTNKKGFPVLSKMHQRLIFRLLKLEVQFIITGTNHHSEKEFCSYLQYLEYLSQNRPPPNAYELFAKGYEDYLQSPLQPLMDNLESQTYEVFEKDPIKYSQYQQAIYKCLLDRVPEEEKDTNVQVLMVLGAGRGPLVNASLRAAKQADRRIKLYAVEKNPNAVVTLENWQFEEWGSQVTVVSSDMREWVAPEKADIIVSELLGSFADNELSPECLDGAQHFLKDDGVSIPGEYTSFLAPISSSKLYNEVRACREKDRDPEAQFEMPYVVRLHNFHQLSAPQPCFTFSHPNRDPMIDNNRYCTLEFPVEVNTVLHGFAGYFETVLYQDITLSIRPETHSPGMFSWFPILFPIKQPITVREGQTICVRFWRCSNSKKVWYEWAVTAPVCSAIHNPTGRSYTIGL
Sequence of Full-length PRMT5 enzyme (NCBI Reference sequence NP_006100.2) co-expressed with His6-MEP50 (Q9BQA1 whole entry partner): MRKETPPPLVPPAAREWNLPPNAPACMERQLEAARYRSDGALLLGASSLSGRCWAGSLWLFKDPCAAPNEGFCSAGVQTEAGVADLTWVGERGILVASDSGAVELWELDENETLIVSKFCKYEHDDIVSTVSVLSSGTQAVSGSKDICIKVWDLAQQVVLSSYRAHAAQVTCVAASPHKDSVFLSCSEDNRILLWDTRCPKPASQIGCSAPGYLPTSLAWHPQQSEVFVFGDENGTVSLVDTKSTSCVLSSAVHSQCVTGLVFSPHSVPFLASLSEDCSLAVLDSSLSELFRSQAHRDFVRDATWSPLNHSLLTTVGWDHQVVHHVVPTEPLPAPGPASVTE
Description: Compounds of the invention may be tested for in vitro activity in the following assay: A histone H4 derived peptide is used as substrate (amino acid sequence: […]N H2). Full-length PRMT5 enzyme (NCBI Reference sequence NP_006100.2) was co-expressed with His6-MEP50 in insect cells and purified via Nickel immobilized metal affinity and gel filtration chromatography (“the enzyme”).
The 6 μL assay reactions are run in Greiner brand black 384-well low volume plates. All reactions contained assay buffer (phosphate buffered saline, 0.01% (v/v) Tween-20, 0.01% (w/v) albumin from chicken egg white, 1 mM dithiothreitol, 200 nM peptide substrate, 1 μM S-Adenosyl methionine, and 15 ng/reaction enzyme, with the enzyme being omitted from negative control reactions. Compounds were added in a volume of 100 nL from dilution series prepared in DMSO, positive and negative control reactions receiving the same volume DMSO without compound. The plates were sealed with adhesive seals and incubated for 4 hours at 37° C. Reaction progress was measured using the Transcreener™ EPIGEN methyltransferase assay (BellBrook Labs, Madison, Wis.) as recommended by the manufacturer. To each reaction 2 μL detection mix were added, containing coupling enzymes, fluorescence polarisation tracer, and AMP antibody. Plates were incubated for 90 minutes before being read on a PerkinElmer EnVision™ plate reader in fluorescence polarisation mode.
Work on `CC(C)(C)OC(=O)N1CCC(Nc2ccc3nc(-c4ccc(OCc5ccccc5)cc4)[nH]c3n2)CC1` [Example 32, tert-butyl 4-((2-(4-(benzyloxy)phenyl)-3H-imidazo[4,5-b]pyridin-5-yl)amino)piperidine-1-carboxylate] yielded an IC50 of 827 nM. In the case of `c1ccc(OCc2ccc(-c3nc4ccc(C5CCCNC5)nc4[nH]3)cc2)cc1` (centres unmarked) [Example 35, 2-(4-(phenoxymethyl)phenyl)-5-(piperidin-3-yl)-3H-imidazo[4,5-b]pyridine], the IC50 is reported as 204 nM. `Cn1ccc(-c2ccc3nc(-c4ccc(COc5ccccc5)cc4)[nH]c3n2)n1` [Example 38, 5-(1-methyl-1H-pyrazol-3-yl)-2-(4-(phenoxymethyl)phenyl)-3H-imidazo[4,5-b]pyridine] was tested, and the IC50 was 2390 nM. Work on `c1ccc(COc2ccc(-c3nc4ccc(N5CCNCC5)nc4[nH]3)cc2)cc1` [Example 47, 2-(4-(benzyloxy)phenyl)-5-(piperazin-1-yl)-3H-imidazo[4,5-b]pyridine] yielded an IC50 of 197 nM. Molecule `CN(C)c1ccc2nc(-c3ccc(OCc4ccccc4)cc3)[nH]c2n1` [Example 48, 2-(4-(benzyloxy)phenyl)-N,N-dimethyl-3H-imidazo[4,5-b]pyridin-5-amine] has an IC50 of 450 nM. Work on `NCC1CCCN(c2ccc3nc(-c4ccc(OCc5ccccc5)cc4)[nH]c3n2)C1` (centres unmarked) [Example 50] yielded an IC50 of 317 nM. Molecule `c1ccc(COc2ccc(-c3nc4ccc(NCC5CCCCN5)nc4[nH]3)cc2)cc1` (centres unmarked) [Example 51] has an IC50 of 547 nM. `c1ccc(COc2ccc(-c3nc4ccc(NCC5CCNCC5)nc4[nH]3)cc2)cc1` [Example 52] showed an IC50 of 935 nM. With `c1ccc(COc2ccc(-c3nc4ccc(NC5CCNCC5)nc4[nH]3)cc2)cc1` [Example 53] the IC50 was 581 nM. `NC1CCN(c2ccc3nc(-c4ccc(OCc5ccccc5)cc4)[nH]c3n2)CC1` [Example 54] was tested, and the IC50 was 583 nM. Molecule `NCC1CCN(c2ccc3nc(-c4ccc(OCc5ccccc5)cc4)[nH]c3n2)CC1` [Example 55] has an IC50 of 426 nM. With `FC(F)(F)c1ccc(COc2ccc(-c3nc4ccc(N5CCNCC5)nc4[nH]3)cc2)cc1` [Example 56] the IC50 was 1860 nM. `Fc1ccccc1COc1ccc(-c2nc3ccc(N4CCNCC4)nc3[nH]2)cc1` [Example 57] was tested, and the IC50 was 981 nM. `Fc1cccc(COc2ccc(-c3nc4ccc(N5CCNCC5)nc4[nH]3)cc2)c1` [Example 58] showed an IC50 of 333 nM. Molecule `Fc1ccc(COc2ccc(-c3nc4ccc(N5CCNCC5)nc4[nH]3)cc2)cc1` [Example 59] has an IC50 of 535 nM. In the case of `FC(F)(F)c1ccccc1COc1ccc(-c2nc3ccc(N4CCNCC4)nc3[nH]2)cc1` [Example 60], the IC50 is reported as 1660 nM. For `Cn1cc(-c2cc(-c3nc4cc(C5CCNCC5)cnc4[nH]3)ccc2OCc2ccccc2)cn1` [Example 63, 2-(4-(benzyloxy)-3-(1-methyl-1H-pyrazol-4-yl)phenyl)-6-(piperidin-4-yl)-3H-imidazo[4,5-b]pyridine], the IC50 was 215 nM. With `c1ccc(COc2ccc(-c3nc4cc(C5CCNCC5)cnc4[nH]3)cc2-c2cccnc2)cc1` [Example 64, 2-(4-(benzyloxy)-3-(pyridin-3-yl)phenyl)-6-(piperidin-4-yl)-3H-imidazo[4,5-b]pyridine] the IC50 was 336 nM. `Fc1cc(-c2nc3cc(C4CCNCC4)cnc3[nH]2)ccc1OCc1ccccc1` [Example 65, 2-(4-(benzyloxy)-3-fluorophenyl)-6-(piperidin-4-yl)-3H-imidazo[4,5-b]pyridine] gave an IC50 of 276 nM. Work on `COC(=O)c1cc(-c2nc3cc(C4CCNCC4)cnc3[nH]2)ccc1OCc1ccccc1` [Example 66, methyl 2-(benzyloxy)-5-(6-(piperidin-4-yl)-3H-imidazo[4,5-b]pyridin-2-yl)benzoate dihydrogen chloride salt] yielded an IC50 of 608 nM. Work on `O=C(O)c1cc(-c2nc3cc(C4CCNCC4)cnc3[nH]2)ccc1OCc1ccccc1` [Example 67, 2-(benzyloxy)-5-(6-(piperidin-4-yl)-3H-imidazo[4,5-b]pyridin-2-yl)benzoic acid dihydrochloride salt] yielded an IC50 of 3720 nM. With `CCS(=O)(=O)N1CCN(c2ccc3nc(-c4ccc(OCc5ccccc5)c(-c5cnn(C)c5)c4)[nH]c3n2)CC1` [Example 69, 2-(4-(benzyloxy)-3-(1-methyl-1H-pyrazol-4-yl)phenyl)-5-(4-(ethylsulfonyl)piperazin-1-yl)-3H-imidazo[4,5-b]pyridine] the IC50 was 447 nM. `CCS(=O)(=O)N1CCN(c2ccc3nc(-c4ccc(OCc5ccccc5)c(-c5ccn[nH]5)c4)[nH]c3n2)CC1` [Example 70] showed an IC50 of 1110 nM. `CCS(=O)(=O)N1CCN(c2ccc3nc(-c4ccc(OCc5ccccc5)c(-c5cccnc5)c4)[nH]c3n2)CC1` [Example 71] showed an IC50 of 542 nM. With `CCS(=O)(=O)N1CCN(c2ccc3nc(-c4ccc(OCc5ccccc5)c(C)c4)[nH]c3n2)CC1` [Example 74, 2-(4-(benzyloxy)-3-methylphenyl)-5-(4-(ethylsulfonyl)piperazin-1-yl)-3H-imidazo[4,5-b]pyridine] the IC50 was 1360 nM. In the case of `CCS(=O)(=O)N1CCN(c2ccc3nc(-c4ccc(OCc5ccccc5)c(OC)c4)[nH]c3n2)CC1` [Example 75, 2-(4-(benzyloxy)-3-methoxyphenyl)-5-(4-(ethylsulfonyl)piperazin-1-yl)-3H-imidazo[4,5-b]pyridine], the IC50 is reported as 306 nM. `O=C(O)Cc1ccnc2[nH]c(-c3ccc(OCc4ccccc4)cc3)nc12` [Example 77, 2-(2-(4-(benzyloxy)phenyl)-3H-imidazo[4,5-b]pyridin-7-yl)acetic acid] gave an IC50 of 901 nM. In the case of `CS(=O)(=O)N1CCC(c2cnc3[nH]c(-c4ccc(OCc5ccccc5)cc4)nc3c2)CC1` [Example 83, 2-(4-(benzyloxy)phenyl)-6-(1-(methylsulfonyl)piperidin-4-yl)-3H-imidazo[4,5-b]pyridine], the IC50 is reported as 1110 nM. In the case of `c1ccc(OCc2ccc(-c3nc4ccc(C5CCNCC5)nc4[nH]3)cc2)cc1` [Example 85, 2-(4-(phenoxymethyl)phenyl)-5-(piperidin-4-yl)-3H-imidazo[4,5-b]pyridine], the IC50 is reported as 151 nM. In the case of `CN1CCC(c2ccc3nc(-c4ccc(COc5ccccc5)cc4)[nH]c3n2)CC1` [Example 86, 5-(1-methylpiperidin-4-yl)-2-(4-(phenoxymethyl)phenyl)-3H-imidazo[4,5-b]pyridine], the IC50 is reported as 151 nM. For `CS(=O)(=O)N1CCC(c2ccc3nc(-c4ccc(OCc5ccccc5)cc4)[nH]c3n2)CC1` [Example 87, 2-(4-(benzyloxy)phenyl)-5-(1-(methylsulfonyl)piperidin-4-yl)-3H-imidazo[4,5-b]pyridine], the IC50 was 355 nM. `CCOC(=O)N1CCC(c2ccc3nc(-c4ccc(OCc5ccccc5)cc4)[nH]c3n2)CC1` [Example 88, ethyl 4-(2-(4-(benzyloxy)phenyl)-3H-imidazo[4,5-b]pyridin-5-yl)piperidine-1-carboxylate] showed an IC50 of 477 nM. `O=S(=O)(C1CC1)N1CCC(c2ccc3nc(-c4ccc(OCc5ccccc5)cc4)[nH]c3n2)CC1` [Example 89, 2-(4-(benzyloxy)phenyl)-5-(1-(cyclopropylsulfonyl)piperidin-4-yl)-3H-imidazo[4,5-b]pyridine] showed an IC50 of 1340 nM. In the case of `CCS(=O)(=O)N1CCC(c2ccc3nc(-c4ccc(OCc5ccccc5)cc4)[nH]c3n2)CC1` [Example 90, 2-(4-(benzyloxy)phenyl)-5-(1-(ethylsulfonyl)piperidin-4-yl)-3H-imidazo[4,5-b]pyridine], the IC50 is reported as 148 nM. `CS(=O)(=O)N1CCN(c2ccc3nc(-c4ccc(OCc5ccccc5)cc4)[nH]c3n2)CC1` [Example 91, 2-(4-(benzyloxy)phenyl)-5-(4-(methylsulfonyl)piperazin-1-yl)-3H-imidazo[4,5-b]pyridine] gave an IC50 of 820 nM.
